Patent US9359367B2, “Tetrahydroquinazolinone derivatives as PARP inhibitors” (Lupin Limited, priority 2012, dated 2016)

These compounds were tested against T1, PARP1 (Homo sapiens, UniProt P09874) (assay: PARP1 Biochemical Assay (BPS Bioscience kit, chemiluminescence)). Details: histone-coated plate, biotinilated NAD+, 25° C. for 60 min, luminescence, read-out: PARP 1 inhibition IC50.
T1 construct: purchased BPS Bioscience
T1 sequence (P09874 whole entry): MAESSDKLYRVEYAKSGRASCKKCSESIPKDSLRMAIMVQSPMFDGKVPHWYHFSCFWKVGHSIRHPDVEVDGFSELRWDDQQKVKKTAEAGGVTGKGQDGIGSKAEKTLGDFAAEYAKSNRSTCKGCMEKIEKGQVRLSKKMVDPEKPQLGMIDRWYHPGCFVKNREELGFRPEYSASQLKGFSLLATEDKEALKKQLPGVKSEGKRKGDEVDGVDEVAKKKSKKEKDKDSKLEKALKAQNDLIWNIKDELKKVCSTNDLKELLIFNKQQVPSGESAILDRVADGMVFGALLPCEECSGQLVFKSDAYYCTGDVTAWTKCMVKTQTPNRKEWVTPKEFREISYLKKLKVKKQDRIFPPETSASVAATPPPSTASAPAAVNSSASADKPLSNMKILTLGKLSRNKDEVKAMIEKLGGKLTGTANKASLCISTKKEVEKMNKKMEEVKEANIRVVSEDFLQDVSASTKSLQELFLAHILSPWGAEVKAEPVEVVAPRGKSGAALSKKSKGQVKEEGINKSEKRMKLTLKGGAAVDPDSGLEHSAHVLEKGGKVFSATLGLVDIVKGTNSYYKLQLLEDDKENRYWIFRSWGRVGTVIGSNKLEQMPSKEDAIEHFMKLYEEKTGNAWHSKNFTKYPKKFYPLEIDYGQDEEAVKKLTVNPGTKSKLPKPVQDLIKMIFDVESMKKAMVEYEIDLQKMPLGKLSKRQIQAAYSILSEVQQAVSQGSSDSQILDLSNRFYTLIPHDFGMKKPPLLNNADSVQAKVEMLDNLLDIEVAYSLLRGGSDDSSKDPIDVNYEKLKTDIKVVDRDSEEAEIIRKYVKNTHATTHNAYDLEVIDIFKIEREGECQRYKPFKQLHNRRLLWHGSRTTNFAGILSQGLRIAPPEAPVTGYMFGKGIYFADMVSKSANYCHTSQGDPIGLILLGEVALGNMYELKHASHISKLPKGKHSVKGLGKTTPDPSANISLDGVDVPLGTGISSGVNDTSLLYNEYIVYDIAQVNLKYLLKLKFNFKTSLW
In short: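 Human PARP1 (25–75 ng/well) with activated DNA was incubated with compound on histone-coated wells. Biotinylated NAD+ was added and the reaction ran 60 min at 25 °C. Ribosylation was detected by streptavidin-HRP chemiluminescence, % inhibition was normalised to enzyme-free and uninhibited controls, and IC50 was fitted from % inhibition versus concentration.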
For `Cc1cc(Cl)ccc1N1CCN([C@H]2C=C(c3nc4c(c(=O)[nH]3)CC3(CC4)CC3)CC2)CC1` [Compound 96, (R)-2′-(3-(4-(4-chloro-2-methylphenyl)piperazin-1-yl)cyclopent-1-en-1-yl)-7′,8′-dihydro-3′H-spiro[cyclopropane-1,6′-quinazolin]-4′(5′H)-one], the IC50 was 1 to 500 nM. In the case of `COc1ccc(N2CCN([C@H]3C=C(c4nc5c(c(=O)[nH]4)CC4(CC5)CC4)CC3)CC2)cc1` [Compound 74, (R)-2′-(3-(4-(4-methoxyphenyl)piperazin-1-yl)cyclopent-1-en-1-yl)-7′,8′-dihydro-3′H-spiro[cyclopropane-1,6′-quinazolin]-4′(5′H)-one], the IC50 is reported as 1 to 500 nM. For `Cc1cccc(N2CCN(CCCc3nc4c(c(=O)[nH]3)CC3(CC4)CC3)CC2)c1` [Compound 23, 2′-(3-(4-(m-tolyl)piperazin-1-yl)propyl)-7′,8′-dihydro-3′H-spiro[cyclopropane-1,6′-quinazolin]-4′(5′H)-one], the IC50 was 5000 to 500000 nM. Work on `Cc1ccc(N2CCN([C@H]3C=C(c4nc5c(c(=O)[nH]4)CC4(CC5)CC4)CC3)CC2)nc1` [Compound 124, (R)-2′-(3-(4-(5-methylpyridin-2-yl)piperazin-1-yl)cyclopent-1-en-1-yl)-7′,8′-dihydro-3′H-spiro[cyclopropane-1,6′-quinazolin]-4′(5′H)-one] yielded an IC50 of 1 to 500 nM.
